Source: patent US20230011869A1 (Hoffmann-La Roche Inc., priority 2018, published 2023)
Counter-ions that a name gives are not always drawn. Like-named read-outs stand apart in the source and are kept apart here.

Test system: Acinetobacter baumannii ATCC17978
Test: Antimicrobial susceptibility testing: 90% growth inhibitory concentration (IC90) determination, Iso-Sensitest broth
Assay type: cell-based
Outline: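 A. baumannii ATCC17978 grown in Iso-Sensitest broth across 10 compound concentrations at 35±2 °C.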

[1] = Acinetobacter baumannii, ATCC17978, 16 h, read-out: ATCC17978 IC90, 90% growth inhibitory concentration, Acinetobacter baumannii ATCC17978, Iso-Sensitest broth, OD 600 nm over 16 h
[2] = 90% growth inhibitory concentration, Acinetobacter baumannii ATCC17978, Iso-Sensitest broth, OD 600 nm over 16 h, read-out: ATCC17978 IC90

Row | IC90 [2] [nM] | Structure (SMILES) | IC90 [1] [nM]
1 |  | CCc1cc(Nc2nccn3c(-c4ccc(OCC#N)c(F)c4F)cnc23)ccc1C(=O)NCCNC(=O)[C@@H]1C[C@@H](O)CN1 [Example 457, (2S,4R)-N-[2-[[4-[[3-[4-(cyanomethoxy)-2,3-difluorophenyl]imidazo[1,2-a]pyrazin-8-yl]amino]-2-ethylbenzoyl]amino]ethyl]-4-hydroxypyrrolidine-2-carboxamide; formic acid] | 80
2 | 82 | Cc1cc(Nc2nccn3c(-c4ccc(O[C@@H](C)C#N)c(F)c4F)cnc23)ccc1C(=O)N1CCN(C(=O)[C@@H]2C[C@](C)(O)CN2)CC1 [Example 459, (2S)-2-[2,3-difluoro-4-[8-[4-[4-[(2S,4S)-4-hydroxy-4-methylpyrrolidine-2-carbonyl]piperazine-1-carbonyl]-3-methylanilino]imidazo[1,2-a]pyrazin-3-yl]phenoxy]propanenitrile; for-mic acid] | 
3 |  | COc1ccc(-c2cnc3c(Nc4ccc(C(=O)N5CCN(C(=O)[C@H]6CCNC6)CC5)c(C)c4)nccn23)c(F)c1F [Example 460, [4-[[3-(2,3-difluoro-4-methoxyphenyl)imidazo[1,2-a]pyrazin-8-yl]amino]-2-methylphenyl]-[4-[(3S)-pyrrolidine-3-carbonyl]piperazin-1-yl]methanone; hydrochloride] | 83
4 |  | Cc1cc(Nc2nccn3c(-c4ccc(OC(F)F)cc4)cnc23)ccc1C(=O)N1CCN(C(=O)[C@@H]2C[C@](C)(O)CN2)CC1 [Example 462, [4-[[3-[4-(difluoromethoxy)phenyl]imi-dazo[1,2-a]pyrazin-8-yl]amino]-2-methylphenyl]-[4-[(2S,4S)-4-hydroxy-4-methylpyrrolidine-2-carbonyl]piperazin-1-yl]methanone; formic acid] | 110
5 |  | CC[C@]1(O)CN[C@H](C(=O)N2CCN(C(=O)c3ccc(Nc4nccn5c(-c6ccc(OC)c(F)c6F)cnc45)cc3C)CC2)C1 [Example 465, [4-[[3-(2,3-difluoro-4-methoxyphenyl)imidazo[1,2-a]pyrazin-8-yl]amino]-2-methylphenyl]-[4-[(2S,4R)-4-ethyl-4-hydroxypyrrolidine-2-carbonyl]piperazin-1-yl]methanone; formic acid] | 170
6 | 180 | Cc1cc(Nc2nccn3c(-c4ccc(O[C@@H](C)C#N)c(F)c4F)cnc23)ccc1C(=O)N1CCN(C(=O)C2(O)CCNCC2)CC1 [Example 467, (2S)-2-[2,3-difluoro-4-[8-[4-[4-(4-hydroxypiperidine-4-carbonyl)piperazine-1-carbonyl]-3-methylanilino]imidazo[1,2-a]pyrazin-3-yl]phenoxy]propanenitrile; for-mic acid] | 
7 | 200 | Cc1cc(Nc2nccn3c(-c4ccc(O[C@@H](C)C#N)c(F)c4F)cnc23)ccc1C(=O)N1CCN(C(=O)[C@@H]2C[C@@H](O)CN2)CC1 [Example 468, (2S)-2-[2,3-difluoro-4-[8-[4-[4-[(2S,4R)-4-hydroxypyrrolidine-2-carbonyl]piperazine-1-carbonyl]-3-methylanilino]imidazo[1,2-a]pyrazin-3-yl]phenoxy]propanenitrile; for-mic acid] | 
8 | 88 | Cc1cc(Nc2nccn3c(-c4ccc(OCC#N)c(F)c4Cl)cnc23)ccc1C(=O)N1CCC(C(=O)OC[C@H]2CNCCN2)CC1 [Example 469, [(2R)-piperazin-2-yl]methyl 1-[4-[[3-[2-chloro-4-(cyanomethoxy)-3-fluorophenyl]imidazo[1,2-a]pyrazin-8-yl]amino]-2-methylbenzoyl]piperidine-4-carboxylate] | 
9 |  | Cc1cc(Nc2nccn3c(-c4ccc(OCC#N)c(F)c4Cl)cnc23)ccc1C(=O)N1CCC(C(=O)OC[C@@H]2CNCCN2)CC1 [Example 470, formic acid; [(2S)-piperazin-2-yl]methyl 1-[4-[[3-[2-chloro-4-(cyanomethoxy)-3-fluorophenyl]imidazo[1,2-a]pyrazin-8-yl]amino]-2-methylbenzoyl]piperidine-4-carboxylate] | 92
